Results from patent US20090257999A1, “Method of preventing contrast-induced nephropathy” (Inotek Pharmaceuticals Corporation, priority 2007, published 2009).

Assays:
[1] = test system: diabetic rats; test: CIN model, Example 5: INO-1001 alone and with NAC in diabetic rats; format: in vivo, rat; details: diabetic rats + Iomeprol, NAC 30 mg/kg i.v., INO-1001 10 mg/kg ip, or both, at −30 min
Method: (§1) Male Wistar rats (150-200 g; Harlan Nossanr) were housed in a controlled environment and provided with standard rodent chow and water. Diabetes was induced after 12 h of fasting. The animals received a single 60 mg/kg intravenous (i.v.) injection of streptozotocin (Sigma, St. Louis, Mo.) in 10 mM sodium citrate buffer, pH 4.5 (see figure). Control non-diabetic animals were fasted and received citrate buffer alone. After 24 hours, animals with blood glucose levels greater than 250 mg/dl were considered diabetic. The diabetic state was confirmed by evaluating the blood glucose levels. Ten days following the induction of diabetes rats were anesthetized with 90 mg/kg ketamine i.m. and 10 mg/kg xylazine i.m. and were treated with the contrast agent iomeprol (10 mL/kg injected via the lateral tail vein) or with 0.9% normal saline. The contrast agent used was the low osmolar non-ionic monomer iomeprol (Iomeron, 400 mgI mL-1; Bracco SpA, Milan, Italy) with an osmolality of 726±34 mosmol/kg H2O.
GROUP 1: Diabetic rats only+Placebo (i.v.). GROUP 2: Diabetic rats+Iomeprol+Placebo (i.v.) given at −30 min. GROUP 3: Diabetic rats+Iomeprol+NAC (30 mg/kg, i.v.) given at −30 min. GROUP 4: Diabetic rats+Iomeprol+INO-1001 (10 mg/kg, ip) given at −30 min. GROUP 5: Diabetic rats+Iomeprol+NAC (30 mg/kg, i.v.)+INO-1001 (10 mg/kg, ip) given at −30 min.
(§2) Blood samples were collected via the lateral tail vein into S1/3 tubes containing serum gel at 24 hours. The samples were centrifuged (6000 r.p.m. for 3 min) to separate plasma. All plasma samples were analyzed for biochemical parameters within 24 hours after collection. Plasma and urine concentrations of creatinine were measured as indicators of impaired glomerular function. Creatinine clearance was calculated using the following formula (=UV/P), where U refers to Creatinine concentration in urine, V to urine volume/min and P to serum creatinine. Plasma and urine concentrations of NGAL (neutrophil gelatinase associated lipocalin) levels and urine αGST (alpha glutathione S-transferase) and NGAL levels were evaluated.
Protein concentration in urine was determined by Bio-Rad DC Protein Assay (BioRad, Richmond Calif.). The Bio-Rad DC protein assay is a colorimetric assay for protein concentration. The reaction is similar to the well-documented Lowry assay (Lowry et al., Protein measurement with the Folin phenol reagent, J Biol Chem 193, 265-275 (1951). The Bio-Rad DC protein assay requires only a single 15-minute incubation, and absorbance is stable for a least 2 hours. The amount of protein is expressed in mg/ml.

[2] = test system: diabetic rats; test: CIN model, Example 3: M40403 alone and with NAC in diabetic rats; format: in vivo, rat; details: diabetic rats + Iomeprol, 24 hours; M40403 0.5 mg/kg i.v. alone or + NAC 3 mg/kg i.v., at −30 min
Method: as §1, with “12 hours” for “12 h”
as §2, with “gel at 0 and 24 hours.” for “gel at 24 hours.”, “of NGAL levels were” for “of NGAL (neutrophil gelatinase associated lipocalin) levels and urine αGST (alpha glutathione S-transferase) and NGAL levels were”

[3] = Iomeron, 400 mgI mL-1; cited from earlier work

O=c1[nH]cnc2c1ncn2[C@@H]1O[C@H](CO)[C@@H](O)[C@H]1O [INO-1001]
plasma creatinine ([1]; 24 h): significant reductions
plasma NGAL concentration ([1]; 24 hours): significant reductions
total protein concentration in the urine ([1]; 24 hours): significant reductions
urine NGAL concentration ([1]; 24 hours): significant reductions
urine αGST ([1]; 24 hours): significant reductions

[Cl-].[Cl-].[Mn+2].c1cc2nc(c1)CN[C@@H]1CCCC[C@H]1NCCN[C@@H]1CCCC[C@H]1NC2 [Metalloporphyrin M40403]
plasma NGAL concentration [2]: significant reduction
plasma Na+ [2]: significant reductions
plasma concentrations of K+ [2]: significant increase
plasma creatinine [2]: significant reductions
total protein concentrations in the urine [2]: significantly reduced
urine NGAL concentration [2]: significant reduction

CN(C(=O)CO)c1c(I)c(C(=O)NCC(O)CO)c(I)c(C(=O)NCC(O)CO)c1I (stereo not drawn) [iomeprol]
osmolality [3]: 726±34 mosmol/kg H2O
